Source: US20040146617A1, “Compositions and methods for suppressing cracking and water loss from cherries” (priority 1998, published 2004)

Test system: cherries
Assay: Cherry firmness after cold storage, pre-harvest application
Type: in vivo
Details: after 12 days of cold storage (33° F.); sprayed 2 weeks before harvest; calcium chloride 0.5% w/v, Formulation III 10% (v/v)
Description: 1. Effect of Pre-Harvest Application of Matrix III and Calcium on Firmness. The effect of the Formulation III (Matrix III, see EXAMPLE 15) on cherry firmness was determined in the lab with a firmness meter. Firmness is a function of water content. […] After drying, a 10% (v/v) dilution of Formulation III was applied to half of the trees. […] Increased firmness was also observed in a larger orchard trial with ‘Bing’ and ‘Van’ cherries.

SMILES: [Ca+2].[Cl-].[Cl-] [calcium chloride, Calcium chloride]
- firmness: 277.1 mg/mm^2
